# Reference: patent US20070287699A1, “ANTIVIRAL AGENTS” (ViroBay, Inc., priority 2006, published 2007)
# Test system: HCV replicon RNA replication in human Huh7 hepatoma cells
# Test: HCV replicon assay (activity levels from either or both of HCV replicon assay 1, Huh7/Clone A RT-qPCR, and assay 2, Huh7 ET luc-ubi-neo/ET)
# Format: cell-based, Hepatitis C virus (HCV)
# Conditions: Hepatitis C virus, Huh-7, either or both HCV replicon assays: Huh7/Clone A, 48 hours, 72 hours, Luc activity or RT-PCR, read-out: inhibit HCV replication at IC50 levels or estimated IC50 levels
# Text: The HCV replicon assay is a cell-culture system that mimics in vivo HCV replication and provides a system to study HCV replication in vitro. It was created by transfecting cloned viral RNA derived from a consensus HCV genomic sequence into human Huh7 hepatoma cells that are semi-permissive for viral RNA production (Lohmann V., Korner F., Koch J.-O., Herian U., Theilmann L. and Bartenschlager R. (1999). Replication of subgenomic Hepatitis C virus RNAs in a hepatoma cell line. Science 285, 110-113 and Blight K. J., Kolykhalov A. A. and Rice C. M. (2000). Efficient initiation of HCV RNA Replication in cell culture. Science 290, […]). These transfected cell lines contain a subgenomic HCV RNA genome that includes (1) the HCV 5′NTR fused to 12 amino acids of the capsid coding region, (2) the neomycin phosphotransferase gene (Neo) as a selectable marker, (3) the internal ribosome entry site (IRES) from encephalomyocarditis virus (EMCV) that directs translation of HCV non-structural proteins (variously NS2 or NS3 to NS5B), and (4) the 3′ NTR. Replicon-containing cells autonomously and persistently replicate HCV RNA that can be measured quantitatively by real-time qPCR. Therefore, the replicon system facilitates quantitative assessment of anti-viral activity by monitoring changes in HCV RNA replication in a cell-based assay.
# HCV replicon-containing cells (Huh7/Clone A) were routinely maintained in Clone A growth medium (DMEM medium [Invitrogen], supplemented with 10% Fetal Bovine Serum, 1% Non Essential Amino Acids and 1 g/L G418). Test compounds were dissolved in dimethyl sulfoxide (DMSO) to make 200× stock solutions for all doses prior to treatment.
# For the HCV replicon assay, Huh7/Clone A cells were trypsinized from culture flasks, seeded in 1 ml of Clone A growth medium without G418 at 4×10^4 cells per well in 24-well plates and incubated at 37° C. in a humidified CO2 (5%) incubator overnight. Following overnight incubation, compound solutions were added into wells in the same volume (5 μl of 200× compound stock per well) to give a final DMSO concentration of 0.5%. Three wells on each plate supplemented with 5 μl of DMSO served as untreated controls. For IC50 determinations, compounds were tested at 7 serial dilutions in triplicates from the starting stock solutions. The plates were incubated at 37° C. for 48 hours. After incubation, cells were harvested, transferred to 96-well plates, and subjected to total RNA extraction using the RNA Isolation Kit (RNeasy 96, Qiagen) according to the protocol described by the manufacture's RNeasy 96 Handbook (Qiagen).
# Total RNA eluted in 130 μl of RNase-free dH2O was quantitated by the RiboGreen Assay according to the supplier's protocol (Molecular Probe). Briefly, 5 μl of RNA samples were aliquoted in duplicate to a 96-well black microplate and a 96-well TaqMan Optical plate. RNA samples in the black microplate were mixed with 95 μl of diluted RiboGreen:reagent (1:250 dilution in TE buffer) and sample fluorescence was measured using a fluorescence microplate reader at standard fluorescein wavelengths (excitation ˜480 nm, emission ˜520 nm). Ribosomal RNA (Molecular Probe) was used as standard.
# TaqMan quantitative PCR (RT-qPCR) was used to quantitate the amount of HCV replicon RNA in each sample. The RT-qPCR reactions were performed in 25 μl on an ABI PRISM 7900 HT Sequence Detection System (Applied Biosystems). The reaction mixture contained 5 μl of total RNA (10-100 ng), 1× TaqMan Buffer A (Applied Biosystems), 5.5 mM MgCl2, 1.2 mM dNTP mix, 0.625 U of AmpliTaq Gold (Applied Biosystems), 5 U of MMLV reverse transcriptase (Promega), 5 U of rRNasin (Promega), 300 nM each of the forward and reverse primers, and 100 nM TaqMan MGB probe. Primers and probe were designed to hybridize to a portion of the neomycin resistance gene (neo) in the replicon and the sequences are as follows: forward primer 5′-GGCTACCTGCCCATTCGA-3′; reverse primer 5′-CCGGCTTCCATCCGAGTAC-3′; MGB probe 5′-CCACCAAGCGAAACA-3′. […]
row,Structure (SMILES),IC50
1,"CN1CCN(c2cc3c(cc2F)c(=O)c(-c2noc(Cc4ccc(F)cc4)n2)cn3Cc2c(F)cccc2F)CC1 [Compound 49, 1-(2,6-difluoro-benzyl)-6-fluoro-3-[5-(4-fluoro-benzyl)-[1,2,4]oxadiazol-3-yl]-7-(4-methyl-piperazin-1-yl)-1H-quinolin-4-one]",< 10 µM
2,"O=c1c(-c2noc(Cc3ccc(F)cc3)n2)cn(Cc2ccc(Cl)cc2)c2cc(N3CCN(c4ccccn4)CC3)c(F)cc12 [Compound 50, 1-(4-chlorobenzyl)-6-fluoro-3-(5-(4-fluorobenzyl)-1,2,4-oxadiazol-3-yl)-7-(4-(pyridin-2-yl)piperazin-1-yl)quinolin-4(1H)-one]",> 10 µM
3,"CN(C)c1cc2c(cc1F)c(=O)c(-c1noc(Cc3ccccc3)n1)cn2Cc1ccc(C(F)(F)F)cc1F [Compound 51, 3-(5-benzyl-[1,2,4]oxadiazol-3-yl)-7-dimethylamino-6-fluoro-1-(2-fluoro-4-trifluoromethyl-benzyl)-1H-quinolin-4-one]",> 10 µM
4,"CN1CCN(c2cc3c(cc2F)c(=O)c(-c2noc(CN4CCCCC4)n2)cn3Cc2ccc(Cl)cc2)CC1 [Compound 52, 1-(4-chloro-benzyl)-6-fluoro-7-(4-methyl-piperazin-1-yl)-3-(5-piperidin-1-ylmethyl-[1,2,4]oxadiazol-3-yl)-1H-quinolin-4-one]",> 10 µM
5,"CN1CCN(c2cc3c(cc2F)c(=O)c(-c2noc(C(CC#N)c4ccccc4)n2)cn3Cc2ccc(Cl)cc2)CC1 (stereo not drawn) [Compound 53, 3-{3-[1-(4-chloro-benzyl)-6-fluoro-7-(4-methyl-piperazin-1-yl)-4-oxo-1,4-dihydro-quinolin-3-yl]-[1,2,4]oxadiazol-5-yl}-3-phenyl-propionitrile]",< 10 µM
6,"CN1CCN(c2cc3c(cc2F)c(=O)c(-c2noc(CN4CCCC4)n2)cn3Cc2ccc(Cl)cc2)CC1 [Compound 54, 1-(4-chloro-benzyl)-6-fluoro-7-(4-methyl-piperazin-1-yl)-3-(5-pyrrolidin-1-ylmethyl-[1,2,4]oxadiazol-3-yl)-1H-quinolin-4-one]",> 10 µM
7,"CNc1cc2c(cc1F)c(=O)c(-c1noc(Cc3ccccc3)n1)cn2Cc1ccc(C(F)(F)F)cc1F [Compound 55, 3-(5-Benzyl-[1,2,4]oxadiazol-3-yl)-6-fluoro-1-(2-fluoro-4-trifluoromethyl-benzyl)-7-methylamino-1H-quinolin-4-one]",> 10 µM
8,"O=c1c(-c2noc(Cc3ccccc3)n2)cn(Cc2ccc(C(F)(F)F)cc2F)c2cc(-n3ccnc3)c(F)cc12 [Compound 56, 3-(5-benzyl-[1,2,4]oxadiazol-3-yl)-6-fluoro-1-(2-fluoro-4-trifluoromethyl-benzyl)-7-imidazol-1-yl-1H-quinolin-4-one]",< 2 µM
9,"Cc1cn(-c2cc3c(cc2F)c(=O)c(-c2noc(Cc4ccccc4)n2)cn3Cc2ccc(C(F)(F)F)cc2F)cn1 [Compound 57, 3-(5-benzyl-[1,2,4]oxadiazol-3-yl)-6-fluoro-1-(2-fluoro-4-trifluoromethyl-benzyl)-7-(4-methyl-imidazol-1-yl)-1H-quinolin-4-one]",< 10 µM
10,"CN1CCN(c2cc3c(cc2F)c(=O)c(-c2noc(Cc4ccc(F)cc4)n2)cn3CCN2CCOCC2)CC1 [Compound 58, 6-fluoro-3-[5-(4-fluoro-benzyl)-[1,2,4]oxadiazol-3-yl]-7-(4-methyl-piperazin-1-yl)-1-(2-morpholin-4-yl-ethyl)-1H-quinolin-4-one]",> 10 µM
11,"CN1CCN(c2cc3c(cc2F)c(=O)c(-c2noc(Cc4ccccc4)n2)cn3CCN2CCOCC2)CC1 [Compound 59, 3-(5-benzyl-[1,2,4]oxadiazol-3-yl)-6-fluoro-7-(4-methyl-piperazin-1-yl)-1-(2-morpholin-4-yl-ethyl)-1H-quinolin-4-one]",> 10 µM
12,"CN1CCN(c2cc3c(cc2F)c(=O)c(-c2noc(C(CC(N)=O)c4ccccc4)n2)cn3Cc2ccc(Cl)cc2)CC1 (stereo not drawn) [Compound 60, 3-{3-[1-(4-chloro-benzyl)-6-fluoro-7-(4-methyl-piperazin-1-yl)-4-oxo-1,4-dihydro-quinolin-3-yl]-[1,2,4]oxadiazol-5-yl}-3-phenyl-propionamide]",> 10 µM
13,"CN1CCN(c2cc3c(cc2F)c(=O)c(-c2noc(Cc4ccccn4)n2)cn3Cc2ccc(Cl)cc2)CC1 [Compound 61, 1-(4-chloro-benzyl)-6-fluoro-7-(4-methyl-piperazin-1-yl)-3-(5-pyridin-2-ylmethyl-[1,2,4]oxadiazol-3-yl)-1H-quinolin-4-one]",> 10 µM
14,"CN1CCN(c2cc3c(cc2F)c(=O)c(-c2noc(Cc4cccnc4)n2)cn3Cc2ccc(Cl)cc2)CC1 [Compound 62, 1-(4-chloro-benzyl)-6-fluoro-7-(4-methyl-piperazin-1-yl)-3-(5-pyridin-3-ylmethyl-[1,2,4]oxadiazol-3-yl)-1H-quinolin-4-one]",> 10 µM
15,"CN1CCN(c2cc3c(cc2F)c(=O)c(-c2noc(C(CCCC#N)c4ccccc4)n2)cn3Cc2ccc(Cl)cc2)CC1 (stereo not drawn) [Compound 63, 5-{3-[1-(4-chloro-benzyl)-6-fluoro-7-(4-methyl-piperazin-1-yl)-4-oxo-1,4-dihydro-quinolin-3-yl]-[1,2,4]oxadiazol-5-yl}-5-phenyl-pentanenitrile]",< 2 µM
16,"CN1CCN(c2cc3c(cc2F)c(=O)c(-c2noc(Cc4ccc(F)cc4)n2)cn3Cc2ccc(Cl)nc2)CC1 [Compound 64, 1-(6-chloro-pyridin-3-ylmethyl)-6-fluoro-3-[5-(4-fluoro-benzyl)-[1,2,4]oxadiazol-3-yl]-7-(4-methyl-piperazin-1-yl)-1H-quinolin-4-one]",< 10 µM
17,"CN1CCN(c2cc3c(cc2F)c(=O)c(-c2noc(Cc4ccccc4)n2)cn3Cc2ccc(Cl)nc2)CC1 [Compound 65, 3-(5-benzyl-[1,2,4]oxadiazol-3-yl)-1-(6-chloro-pyridin-3-ylmethyl)-6-fluoro-7-(4-methyl-piperazin-1-yl)-1H-quinolin-4-one]",< 10 µM
18,"COC(=O)CNc1cc2c(cc1F)c(=O)c(-c1noc(Cc3ccccc3)n1)cn2Cc1ccc(C(F)(F)F)cc1F [Compound 66, methyl[3-(5-benzyl-[1,2,4]oxadiazol-3-yl)-6-fluoro-1-(2-fluoro-4-trifluoromethyl-benzyl)-4-oxo-1,4-dihydro-quinolin-7-ylamino]-acetate]",> 10 µM
19,"CN1CCN(c2cc3c(cc2F)c(=O)c(-c2noc(C(CCC(N)=O)c4ccccc4)n2)cn3Cc2ccc(Cl)cc2)CC1 (stereo not drawn) [Compound 67, 4-{3-[1-(4-chloro-benzyl)-6-fluoro-7-(4-methyl-piperazin-1-yl)-4-oxo-1,4-dihydro-quinolin-3-yl]-[1,2,4]oxadiazol-5-yl}-4-phenyl-butyramide]",< 10 µM
20,"COc1ccc2c(=O)c(-c3noc(Cc4ccccc4)n3)cn(Cc3ccc(C(F)(F)F)cc3)c2c1 [Compound 68, 3-(5-benzyl-oxadiazol-3-yl)-7-methoxy-1-(4-trifluoromethyl-benzyl)-1H-quinolin-4-one]",> 10 µM
21,"NC(=O)CNc1cc2c(cc1F)c(=O)c(-c1noc(Cc3ccccc3)n1)cn2Cc1ccc(C(F)(F)F)cc1F [Compound 69, 2-[3-(5-benzyl-[1,2,4]oxadiazol-3-yl)-6-fluoro-1-(2-fluoro-4-trifluoromethyl-benzyl)-4-oxo-1,4-dihydro-quinolin-7-ylamino]-acetamide]",< 10 µM
